{
  "source": "paper PMC2956102",
  "about": "(International Journal of Molecular Sciences, 2010)",
  "key": {"yeast α-glucosidase": {"test_system": "yeast α-glucosidase", "set-up": "method as in PMID 15558946", "conditions": "ref [9]; cited from earlier work"}, "[1]": {"biological_target": "T1, porcine pancreatic α-amylase (Sus scrofa, UniProt P00690)", "T1 construct": "purchased Sigma Chemical Co. Ltd. (St. Louis, MO)", "T1 sequence (P00690 16-511)": "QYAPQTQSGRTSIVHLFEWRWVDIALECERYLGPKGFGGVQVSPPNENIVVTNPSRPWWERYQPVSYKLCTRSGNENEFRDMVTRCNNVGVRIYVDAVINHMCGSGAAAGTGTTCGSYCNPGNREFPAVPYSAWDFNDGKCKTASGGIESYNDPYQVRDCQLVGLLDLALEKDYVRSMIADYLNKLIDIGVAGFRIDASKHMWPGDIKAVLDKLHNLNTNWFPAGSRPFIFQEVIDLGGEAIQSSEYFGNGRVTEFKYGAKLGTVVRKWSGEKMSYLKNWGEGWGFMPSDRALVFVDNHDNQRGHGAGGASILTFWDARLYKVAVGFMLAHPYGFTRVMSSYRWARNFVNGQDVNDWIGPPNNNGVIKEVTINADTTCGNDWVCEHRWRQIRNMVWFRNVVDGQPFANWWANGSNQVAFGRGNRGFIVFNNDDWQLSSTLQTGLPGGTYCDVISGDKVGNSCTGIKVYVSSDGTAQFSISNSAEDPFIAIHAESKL", "experiment": "Pancreatic α-amylase inhibition assay (starch, DNS reagent)", "type": "biochemical", "conditions": "for Percentage pancreatic α-amylase inhibition in combination with acarbose, compared with acarbose alone: 1.0 μM compound + 3.12 μM acarbose, Figure 4; for IC50: 1 g/L starch, amylase 3 U/mL, pH 6.9, 10 min, means ± S.E.M., n = 3", "procedure": "The pancreatic α-amylase inhibition assay was performed according to our previous reports. Porcine pancreatic α-amylase was dissolved in 0.1 M phosphate buffer saline, pH 6.9. The various concentrations of test compounds were added to solution containing in 1 g/L starch and phosphate buffer. The reaction was initiated by adding amylase (3 U/mL) to the incubation medium to a final volume of 500 μL. After 10 min, the reaction was stopped by adding 0.5 mL dinitrosalicylic (DNS) reagent (1% 3,5-dinitrosalicylic acid, 0.2% phenol, 0.05% Na2SO3, and 1% NaOH in aqueous solution) to the reaction mixture. The mixtures were heated at 100 °C for 10 min and 500 μL of 40% potassium sodium tartarate solution was added to the mixtures to stabilize the color. After cooling to room temperature in a cold water bath, absorbance was recorded at 540 nm using a spectrophotometer.\n(§1) The reaction was performed according to the above assay (α-glucosidase and pancreatic α-amylase). Results were expressed as a percentage inhibition of the corresponding control values."}, "intestinal sucrase [2]": {"biological_target": "T2, intestinal sucrase (Rattus norvegicus, UniProt P23739)", "T2 construct": "100 mg of rat intestinal acetone powder was homogenized in 3 mL of 0.9% NaCl solution; tissue Sigma Chemical Co. Ltd. (St. Louis, MO); host or cells: rat intestine (acetone powder, supernatant of the saline homogenate)", "T2 sequence (P23739 1014-1841 limits assumed)": "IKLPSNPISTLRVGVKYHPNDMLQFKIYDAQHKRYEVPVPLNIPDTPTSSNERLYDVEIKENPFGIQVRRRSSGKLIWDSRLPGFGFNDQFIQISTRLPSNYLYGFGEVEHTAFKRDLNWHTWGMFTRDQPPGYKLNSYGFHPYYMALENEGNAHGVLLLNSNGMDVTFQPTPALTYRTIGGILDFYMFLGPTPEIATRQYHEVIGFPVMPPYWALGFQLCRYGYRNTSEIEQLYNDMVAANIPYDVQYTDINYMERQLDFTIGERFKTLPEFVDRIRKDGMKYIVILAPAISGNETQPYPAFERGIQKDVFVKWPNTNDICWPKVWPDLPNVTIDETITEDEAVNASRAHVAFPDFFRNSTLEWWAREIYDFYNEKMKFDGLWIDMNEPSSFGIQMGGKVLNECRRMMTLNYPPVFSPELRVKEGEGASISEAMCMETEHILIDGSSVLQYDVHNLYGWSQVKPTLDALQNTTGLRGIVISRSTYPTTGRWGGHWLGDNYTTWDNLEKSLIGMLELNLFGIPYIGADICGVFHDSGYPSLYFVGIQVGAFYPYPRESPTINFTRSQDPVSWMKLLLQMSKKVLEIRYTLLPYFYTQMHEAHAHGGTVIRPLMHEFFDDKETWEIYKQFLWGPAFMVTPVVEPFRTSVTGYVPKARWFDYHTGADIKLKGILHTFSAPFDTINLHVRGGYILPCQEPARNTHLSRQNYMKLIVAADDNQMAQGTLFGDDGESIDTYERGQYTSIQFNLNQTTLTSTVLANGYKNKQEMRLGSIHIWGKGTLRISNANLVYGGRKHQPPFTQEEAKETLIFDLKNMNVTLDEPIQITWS", "T2 sequence (P23739 2-1013 partner limits assumed)": "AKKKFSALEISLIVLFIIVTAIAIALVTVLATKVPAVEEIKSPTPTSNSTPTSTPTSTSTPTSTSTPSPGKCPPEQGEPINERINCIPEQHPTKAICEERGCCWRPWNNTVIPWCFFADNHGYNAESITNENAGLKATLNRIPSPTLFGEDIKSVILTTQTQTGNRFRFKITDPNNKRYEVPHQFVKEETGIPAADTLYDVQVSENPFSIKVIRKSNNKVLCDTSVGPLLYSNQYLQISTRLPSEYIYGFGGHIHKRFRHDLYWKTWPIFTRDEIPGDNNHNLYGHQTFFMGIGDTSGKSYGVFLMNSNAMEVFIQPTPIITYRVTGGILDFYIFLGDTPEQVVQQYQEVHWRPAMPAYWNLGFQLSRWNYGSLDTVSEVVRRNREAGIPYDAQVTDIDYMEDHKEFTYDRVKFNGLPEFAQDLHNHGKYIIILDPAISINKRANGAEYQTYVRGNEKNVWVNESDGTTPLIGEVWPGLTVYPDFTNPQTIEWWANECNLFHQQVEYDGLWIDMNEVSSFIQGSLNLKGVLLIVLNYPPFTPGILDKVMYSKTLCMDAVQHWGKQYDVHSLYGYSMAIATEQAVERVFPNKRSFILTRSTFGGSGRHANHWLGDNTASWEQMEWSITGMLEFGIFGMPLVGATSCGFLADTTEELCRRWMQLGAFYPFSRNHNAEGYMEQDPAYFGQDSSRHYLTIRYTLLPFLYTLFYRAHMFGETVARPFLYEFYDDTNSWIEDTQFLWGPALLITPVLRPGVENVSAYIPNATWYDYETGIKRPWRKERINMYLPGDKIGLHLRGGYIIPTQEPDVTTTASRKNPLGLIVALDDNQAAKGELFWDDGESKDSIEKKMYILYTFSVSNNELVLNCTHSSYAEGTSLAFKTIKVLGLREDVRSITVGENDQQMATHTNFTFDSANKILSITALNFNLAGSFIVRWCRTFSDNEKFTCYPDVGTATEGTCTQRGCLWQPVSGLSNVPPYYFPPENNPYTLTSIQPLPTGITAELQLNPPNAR", "experiment": "Intestinal α-glucosidase (sucrase) inhibition assay, rat intestinal acetone powder", "type": "biochemical", "conditions": "for Percentage intestinal sucrase inhibition in combination with acarbose, compared with acarbose alone: 1 μM compound + 3.12 μM acarbose, Figure 3; for IC50: 54 mM sucrose, pH 6.9, 37 °C, 60 min, means ± S.E.M., n = 3", "procedure": "(§2) The assessment of α-glucosidase inhibitory activity was performed according to our previous report. Briefly, 100 mg of rat intestinal acetone powder was homogenized in 3 mL of 0.9% NaCl solution. After centrifugation (12,000 g × 30 min), 10 μL of the supernatant (maltase = 0.68 units/mg protein, sucrase = 0.10 units/mg protein) was incubated with 70 μL of substrate solution (37 mM maltose, 54 mM sucrose), and 20 μL of sample at various concentrations in 0.1 M phosphate buffer pH 6.9 at 37 °C for 30 min (maltase assay) and 60 min (sucrase assay). The mixtures were suspended in boiling water for 10 min to stop the reaction. The concentrations of glucose released from the reaction mixtures were determined by glucose oxidase method.\nas §1"}, "intestinal maltase": {"test_system": "intestinal maltase", "experiment": "Intestinal α-glucosidase (maltase) inhibition assay, rat intestinal acetone powder", "type": "biochemical", "conditions": "for IC50: 37 mM maltose, pH 6.9, 37 °C, 30 min, means ± S.E.M., n = 3", "procedure": "as §2, with “method. Acarbose was used as a positive control for this assay.” for “method.”\nas §1"}, "[3]": {"conditions": "cited from earlier work"}, "pancreatic β-cell line": {"test_system": "pancreatic β-cell line", "set-up": "method as in PMID 15631504", "conditions": "ref [16]; cited from earlier work"}, "3T3-L1 adipocytes": {"test_system": "3T3-L1 adipocytes", "set-up": "method as in PMID 18179781", "conditions": "H2O2- or TNF-α-induced, via inhibition of JNK signal pathway; ref [15]; cited from earlier work"}, "intestinal sucrase [4]": {"biological_target": "T2, intestinal sucrase", "conditions": "cited from earlier work"}, "intestinal α-glucosidase": {"test_system": "intestinal α-glucosidase", "conditions": "combination of acarbose and compound; ref [8]; cited from earlier work"}},
  "note": "Read-outs that look alike come from different tables or passages of the source.",
  "data": [
    {"smiles": "C[C@@H]1O[C@@H](OC[C@H]2O[C@@H](Oc3cc4c(O)cc(O)cc4[o+]c3-c3ccc(O)c(O)c3)[C@H](O)[C@@H](O)[C@@H]2O)[C@H](O)[C@H](O)[C@H]1O", "note": "[cyanidin-3-rutinoside]", "values": [
      {"measurement": "Manner of inhibition of yeast α-glucosidase", "setting": "yeast α-glucosidase", "value": "non-competitive"}
    ]},
    {"smiles": "Oc1cc(O)c2cc(O)c(-c3ccc(O)c(O)c3)[o+]c2c1", "note": "[Cyanidin, Cyanidin chloride]", "values": [
      {"measurement": "Pancreatic α-amylase inhibitory activity", "setting": "[1]", "value": "weak"},
      {"measurement": "Percentage pancreatic α-amylase inhibition in combination with acarbose, compared with acarbose alone", "setting": "[1]", "value": "significantly increased"},
      {"measurement": "IC50", "setting": "[1]", "value": "380 ± 10", "unit": "µM"},
      {"measurement": "Intestinal sucrase inhibitory activity", "setting": "intestinal sucrase [2]", "value": "weak"},
      {"measurement": "Percentage intestinal sucrase inhibition in combination with acarbose, compared with acarbose alone", "setting": "intestinal sucrase [2]", "value": "No change"},
      {"measurement": "IC50", "setting": "intestinal sucrase [2]", "value": "1420 ± 250", "unit": "µM"},
      {"measurement": "Percentage intestinal maltase inhibition in combination with acarbose, compared with acarbose alone", "setting": "intestinal maltase; 1 μM compound + 0.05 μM acarbose, Figure 2", "value": "No change"},
      {"measurement": "IC50", "setting": "intestinal maltase", "value": "> 3000", "unit": "µM"}
    ]},
    {"smiles": "C[C@H]1O[C@H](O[C@H]2[C@H](O)[C@@H](O)[C@@H](O[C@H]3[C@H](O)[C@@H](O)C(O)O[C@@H]3CO)O[C@@H]2CO)[C@H](O)[C@@H](O)[C@@H]1N[C@H]1C=C(CO)[C@@H](O)[C@H](O)[C@H]1O", "note": "(stereo partly drawn) [Acarbose]", "values": [
      {"measurement": "IC50", "setting": "intestinal maltase", "value": "3 ± 1", "unit": "µM"},
      {"measurement": "Reduction in the incidence of diabetes", "setting": "[3]; acarbose treatment, ref [18]", "value": 25, "unit": "%"},
      {"measurement": "Reduction of the postprandial peak of glycemia", "setting": "[3]; acarbose treatment, ref [19]", "value": 20, "unit": "%"},
      {"measurement": "Most common adverse effect", "setting": "[3]; dose-dependent, flatulence, meteorism and abdominal distention, ref [19]", "value": "gastrointestinal disturbance"},
      {"measurement": "Duration of the effect on postprandial glycemia", "setting": "[3]; ref [19]", "value": "≤ 5", "unit": "h"},
      {"measurement": "Dose exceeding the saturated binding of α-glucosidase, no increase in inhibitory effect", "setting": "[3]; ref [20],[21]", "value": "> 300", "unit": "mg/day"},
      {"measurement": "Lowest dose with clinical effects", "setting": "[3]; ref [20],[21]", "value": 150, "unit": "mg/day"}
    ]},
    {"smiles": "OC[C@H]1O[C@@H](Oc2cc3c(O)cc(O)cc3[o+]c2-c2ccc(O)c(O)c2)[C@H](O)[C@@H](O)[C@@H]1O", "note": "[Cyanidin-3-glucoside, cyanidin-3-glucoside chloride]", "values": [
      {"measurement": "Percentage pancreatic α-amylase inhibition in combination with acarbose, compared with acarbose alone", "setting": "[1]", "value": "significantly increased"},
      {"measurement": "IC50", "setting": "[1]", "value": "300 ± 10", "unit": "µM"},
      {"measurement": "Insulin secretion", "setting": "pancreatic β-cell line", "value": "directly stimulate insulin secretion"},
      {"measurement": "Percentage intestinal sucrase inhibition in combination with acarbose, compared with acarbose alone", "setting": "intestinal sucrase [2]", "value": "synergistic effects"},
      {"measurement": "IC50", "setting": "intestinal sucrase [2]", "value": "970 ± 50", "unit": "µM"},
      {"measurement": "IC50", "setting": "intestinal maltase", "value": "> 3000", "unit": "µM"},
      {"measurement": "Action against induced insulin resistance", "setting": "3T3-L1 adipocytes", "value": "protective action"}
    ]},
    {"smiles": "OC[C@H]1O[C@@H](Oc2cc3c(O)cc(O)cc3[o+]c2-c2ccc(O)c(O)c2)[C@H](O)[C@@H](O)[C@H]1O", "note": "[Cyanidin-3-galactoside, cyanidin-3-galactoside chloride]", "values": [
      {"measurement": "Pancreatic α-amylase inhibitory activity", "setting": "[1]", "value": "no inhibitory activity"},
      {"measurement": "Percentage pancreatic α-amylase inhibition in combination with acarbose, compared with acarbose alone", "setting": "[1]", "value": "did not show significant changes"},
      {"measurement": "IC50", "setting": "[1]", "value": "> 1000", "unit": "µM"},
      {"measurement": "Insulin secretion", "setting": "pancreatic β-cell line", "value": "directly stimulate insulin secretion"},
      {"measurement": "Type of inhibition against intestinal sucrase", "setting": "intestinal sucrase [4]; kinetic model, ref [8]", "value": "mixed type"},
      {"measurement": "IC50", "setting": "intestinal sucrase [4]; previously reported value, ref Adisakwattana et al. [8]", "value": "500 ± 50", "unit": "µM"},
      {"measurement": "Percentage intestinal sucrase inhibition in combination with acarbose, compared with acarbose alone", "setting": "intestinal sucrase [2]", "value": "synergistic effects"},
      {"measurement": "IC50", "setting": "intestinal maltase", "value": "> 3000", "unit": "µM"},
      {"measurement": "Effect of combination with acarbose on intestinal α-glucosidase inhibition", "setting": "intestinal α-glucosidase", "value": "synergistic effect"}
    ]},
    {"smiles": "OC[C@H]1O[C@@H](Oc2cc3c(O[C@@H]4O[C@H](CO)[C@@H](O)[C@H](O)[C@H]4O)cc(O)cc3[o+]c2-c2ccc(O)c(O)c2)[C@H](O)[C@@H](O)[C@@H]1O", "note": "[Cyanidin-3,5-diglucoside, cyanidin-3,5-diglucoside]", "values": [
      {"measurement": "Pancreatic α-amylase inhibitory activity", "setting": "[1]", "value": "no inhibitory activity"},
      {"measurement": "Percentage pancreatic α-amylase inhibition in combination with acarbose, compared with acarbose alone", "setting": "[1]", "value": "did not show significant changes"},
      {"measurement": "IC50", "setting": "[1]", "value": "> 1000", "unit": "µM"},
      {"measurement": "Intestinal sucrase inhibitory activity", "setting": "intestinal sucrase [2]", "value": "inactive"},
      {"measurement": "Percentage intestinal sucrase inhibition in combination with acarbose, compared with acarbose alone", "setting": "intestinal sucrase [2]", "value": "synergistic effects"},
      {"measurement": "IC50", "setting": "intestinal sucrase [2]", "value": "> 2000", "unit": "µM"},
      {"measurement": "IC50", "setting": "intestinal maltase", "value": "> 3000", "unit": "µM"}
    ]}
  ]
}
